This note sets out measurements from US5225528A, “Cyclic hexapeptide oxytocin antagonists” (priority 1990, dated 1993).

Read-outs that look alike come from different tables or passages of the source. Numbered stars: 1 amine (or outer) side, 2 acyl side, 3 side chain; on linkers, the order of the positions; unused ones are H or OH. Square brackets hold non-standard residues; d marks the D form. Peptide text beside a SMILES is read from it. * marks the point of attachment. dPip(4-aza,4-Cbz) = O=C(O)[C@H]1CN(C(=O)OCc2ccccc2)CCN1; X2 = O=C(OCc1ccccc1)N1CCN([*:1])[C@H](C(=O)[*:2])C1; dPhe(4-NO2) = N[C@H](Cc1ccc([N+](=O)[O-])cc1)C(=O)O; dPhe(4-NH2) = Nc1ccc(C[C@@H](N)C(=O)O)cc1; Ethyl(2-morpholino) = C1CN(CC*)CCO1; dNMeY = CN[C@H](Cc1ccc(O)cc1)C(=O)O; Pip(4-aza) = O=C(O)[C@@H]1CNCCN1; dNMeF = CN[C@H](Cc1ccccc1)C(=O)O; dPip(4-aza) = O=C(O)[C@H]1CNCCN1; Chg = N[C@H](C(=O)O)C1CCCCC1; dOrn = NCCC[C@@H](N)C(=O)O; Pip = O=C(O)[C@@H]1CCCCN1; dPip = O=C(O)[C@H]1CCCCN1; Orn = NCCC[C@H](N)C(=O)O; Cbz = O=C(OCc1ccccc1)*; Me2Gly = CN(C)CC(=O)*

Test [1] deals with T1, AVP-V2 sites (Rattus norvegicus, UniProt Q00788).
T1 construct: male rat liver (AVP-V1 sites) or kidney medulla (AVP-V2 sites); from tissue; host or cells: male rat kidney medulla, crude membranes
T1 sequence (Q00788 whole entry): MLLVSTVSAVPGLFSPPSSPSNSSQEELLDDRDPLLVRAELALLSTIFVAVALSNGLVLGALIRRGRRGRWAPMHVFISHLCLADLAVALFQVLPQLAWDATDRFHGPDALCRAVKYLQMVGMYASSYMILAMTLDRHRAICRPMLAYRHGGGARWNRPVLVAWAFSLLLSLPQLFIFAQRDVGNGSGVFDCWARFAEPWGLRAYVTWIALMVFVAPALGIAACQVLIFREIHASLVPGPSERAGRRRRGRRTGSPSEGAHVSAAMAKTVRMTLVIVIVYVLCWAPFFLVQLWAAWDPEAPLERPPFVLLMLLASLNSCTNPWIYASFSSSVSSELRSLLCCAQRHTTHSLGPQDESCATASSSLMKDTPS
Briefly: [^3 H]AVP binding to crude membrane preparation of male rat kidney medulla (AVP-V2 sites). How it is done: (§1) Nonspecific binding (5-10% of the total binding) was determined using 10 μM unlabeled AVP, and the binding reaction was terminated by filtration as described above for the [^3 H]OT binding assay.

Test [2] has as its target T2, uterine OT receptors (Rattus norvegicus, UniProt P70536).
T2 construct: from tissue; host or cells: uterus of DES-treated rats, crude membranes
T2 sequence (P70536 1-388): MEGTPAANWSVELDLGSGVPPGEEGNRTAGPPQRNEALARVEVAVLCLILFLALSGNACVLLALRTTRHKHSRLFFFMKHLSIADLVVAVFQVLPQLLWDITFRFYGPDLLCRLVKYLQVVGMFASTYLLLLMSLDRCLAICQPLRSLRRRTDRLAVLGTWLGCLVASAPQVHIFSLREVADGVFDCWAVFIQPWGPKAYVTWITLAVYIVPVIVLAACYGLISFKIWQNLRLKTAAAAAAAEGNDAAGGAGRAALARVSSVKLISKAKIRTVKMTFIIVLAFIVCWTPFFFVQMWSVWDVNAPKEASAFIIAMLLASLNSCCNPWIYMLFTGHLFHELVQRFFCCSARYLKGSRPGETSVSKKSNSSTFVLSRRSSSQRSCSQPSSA
Briefly: [^3 H]OT binding to uterine OT receptors, crude membrane preparation of uteri from DES-treated rats. To be noted: for IC50: rat uterus membranes, 1 nM [^3 H]OT, read-out: Receptor Binding Results IC50 (nM) [^3 H]OT; for inhibition at 0.1 µM: 1 h, @ 100 (nM), read-out: [^3 H]OT: percent inhibition of radioligand at the given concentration. The protocol:
Competition studies were conducted at equilibrium (60 minutes; 22° C.) using 1 nM [^3 H]OT in the following assay buffer: 50 mM Tris-HCl, 5 mM MgCl2, and 0.1% BSA, pH 7.4.

For test [3], the target named is T3, AVP-V1 sites (Rattus norvegicus, UniProt P30560).
T3 construct: crude membrane preparation of male rat liver (AVP-V1 sites); from tissue; host or cells: male rat liver, crude membranes
T3 sequence (P30560 whole entry): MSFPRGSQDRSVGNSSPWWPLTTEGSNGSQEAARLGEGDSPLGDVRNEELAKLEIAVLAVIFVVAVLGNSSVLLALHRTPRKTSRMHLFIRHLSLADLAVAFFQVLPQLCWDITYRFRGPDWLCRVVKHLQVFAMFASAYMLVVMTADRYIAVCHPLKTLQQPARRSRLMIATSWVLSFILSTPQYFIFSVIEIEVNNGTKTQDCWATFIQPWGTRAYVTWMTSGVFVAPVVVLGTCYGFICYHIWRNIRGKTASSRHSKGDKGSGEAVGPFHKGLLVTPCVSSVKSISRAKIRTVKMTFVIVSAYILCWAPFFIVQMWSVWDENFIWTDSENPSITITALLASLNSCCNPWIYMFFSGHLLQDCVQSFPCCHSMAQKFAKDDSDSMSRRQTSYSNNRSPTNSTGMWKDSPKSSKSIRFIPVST
The experiment in a line: [^3 H]AVP binding to crude membrane preparation of male rat liver (AVP-V1 sites). How it is done: as §1

[4] abbreviates: rat kidney medulla membranes, 2 nM [^3 H]AVP, read-out: Receptor Binding Results IC50 (nM) [^3 H]-AVP-V2.
Where [5] appears, read: Receptor Binding Results IC50 (nM) [^3 H]-AVP-V1.
Where [6] appears, read: Receptor Binding Results IC50 (nM) [^3 H]-AVP-V2.
The mark [7] stands for this setting: read-out: Receptor Binding Results IC50 (nM) [^3 H]-AVP-V2.
[8] abbreviates: read-out: Receptor Binding Results IC50 (nM) [^3 H]-AVP-V1.

A word on the IC50: it is the concentration that inhibits the measured activity by half.

Take `CC[C@H](C)[C@@H]1NC(=O)[C@@H](Cc2ccccc2)NC(=O)[C@@H]2CCCN2C(=O)[C@@H](Cc2c[nH]cn2)NC(=O)[C@H](CCCCNC(=O)OCc2ccccc2)NC(=O)[C@H]2CCCCN2C1=O` [Example 37, Cyclo[D-Phenylalanyl-L-isoleucyl-D-pipecolyl-L-(carbobenzyloxy)lysyl-D-histidyl-L-prolyl]] (cyclo(I[dPip]K(Cbz)[dH]P[dF])): the 50% inhibitory concentration (IC50) in test [1] (setting [4]) was more than 10000 nM; in test [2], more than 100 nM; in test [3] (setting [5]), 10000 nM.

For the compound `CC[C@H](C)[C@@H]1NC(=O)[C@@H](Cc2c[nH]c3ccccc23)NC(=O)[C@@H]2CCCN2C(=O)[C@@H](Cc2c[nH]cn2)NC(=O)[C@H](CCCCNC(=O)OCc2ccccc2)NC(=O)[C@H]2CCCCN2C1=O` [Example 38, Cyclo[D-tryptophanyl-L-isoleucyl-D-pipecolyl-L-(carbobenzyloxy)lysyl-D-histidyl-L-prolyl]] (cyclo(I[dPip]K(Cbz)[dH]P[dW])), the IC50 is 10000 nM in test [1] (setting [4]) and more than 1000 nM in test [3] (setting [5]). Besides, the inhibition at 0.1 µM in test [2] was found to be 60%.

In the case of `CC[C@H](C)[C@@H]1NC(=O)[C@@H](Cc2ccccc2)NC(=O)[C@@H]2CCCN2C(=O)[C@@H](CCCN)NC(=O)[C@@H]2CCCCN2C(=O)[C@H]2CCCCN2C1=O` [Example 39, Cyclo[D-phenylalanyl-L-isoleucyl-D-pipecolyl-L-pipecolyl-D-ornithyl-L-prolyl]] (cyclo(I[dPip][Pip][dOrn]P[dF])), the IC50 was more than 10000 nM in test [1] (setting [6]) and more than 1000 nM in test [3] (setting [5]). In test [2], the inhibition at 0.1 µM is 28%.

Take `CC[C@H](C)[C@@H]1NC(=O)[C@@H](Cc2c[nH]c3ccccc23)NC(=O)[C@@H]2CCCN2C(=O)[C@@H](Cc2ccccc2)N(C)C(=O)[C@H](CCCN)NC(=O)[C@H]2CCCCN2C1=O` [Example 40, Cyclo[D-tryptophanyl-L-isoleucyl-D-pipecolyl-L-ornithyl-D-(N^α Methyl)phenylalanyl-L-prolyl]] (cyclo(I[dPip][Orn][dNMeF]P[dW])): the IC50 in test [1] (setting [6]) and in test [3] (setting [5]) was more than 1000 nM in each case. For the same compound, the inhibition at 0.1 µM in test [2] turned out to be 59%.

With `CC[C@H](C)[C@@H]1NC(=O)[C@@H](Cc2ccccc2)NC(=O)[C@@H]2CCCN2C(=O)[C@@H](Cc2ccc(O)cc2)N(C)C(=O)[C@@H]2CCCCN2C(=O)[C@H]2CCCCN2C1=O` [Example 46, Cyclo[D-phenylalanyl-L-isoleucyl-D-pipecolyl-L-pipecolyl-D-(N^α Methyl)tyrosyl-L-prolyl]] (cyclo(I[dPip][Pip][dNMeY]P[dF])), the IC50 in test [1] (setting [6]) is more than 1000 nM; in test [3] (setting [5]), 10000 nM. The inhibition at 0.1 µM in test [2] stood at 60%.

Take `CC[C@H](C)[C@@H]1NC(=O)[C@@H](Cc2ccccc2)NC(=O)[C@@H]2CCCN2C(=O)[C@@H](Cc2ccc([N+](=O)[O-])cc2)NC(=O)[C@@H]2CCCCN2C(=O)[C@H]2CCCCN2C1=O` [Example 47, Cyclo[D-phenylalanyl-L-isoleucyl-D-pipecolyl-L-pipecolyl-D(p-nitro)phenylalanyl-L-prolyl]] (cyclo(I[dPip][Pip][dPhe(4-NO2)]P[dF])): the IC50 in test [1] (setting [4]) is 10000 nM; in test [2], 620 nM; in test [3] (setting [5]), more than 1000 nM.

Take `CC[C@H](C)[C@@H]1NC(=O)[C@@H](Cc2ccccc2)NC(=O)[C@@H]2CCCN2C(=O)[C@@H](Cc2ccc(N)cc2)NC(=O)[C@@H]2CCCCN2C(=O)[C@H]2CCCCN2C1=O` [Example 48, Cyclo[D-phenylalanyl-L-isoleucyl-D-pipecolyl-L-pipecolyl-D-(p-amino)phenylalanyl-L-prolyl]] (cyclo(I[dPip][Pip][dPhe(4-NH2)]P[dF])): the values for the IC50 in test [1] (setting [4]), in test [2] and in test [3] (setting [5]) were more than 10000 nM, 250 nM and 10000 nM, respectively.

With `CC[C@H](C)[C@@H]1NC(=O)[C@@H](Cc2ccccc2)NC(=O)[C@@H]2CCCN2C(=O)[C@@H](Cc2ccc(NC(=O)CN(C)C)cc2)NC(=O)[C@@H]2CCCCN2C(=O)[C@H]2CCCCN2C1=O` [Example 49, Cyclo[D-phenylalanyl-L-isoleucyl-D-pipecolyl-L-pipecolyl-D-([N,N-dimethylglycyl]p-amino)phenylalanyl-L-prolyl]] (cyclo(I[dPip][Pip][dPhe(4-NH2)](Me2Gly)P[dF])), the concentration for half-maximal inhibition (IC50) in test [1] (setting [4]) was found to be 10000 nM; in test [2] it was 320 nM; in test [3] (setting [5]), 10000 nM.

Regarding `CC[C@H](C)[C@@H]1NC(=O)[C@@H](Cc2ccccc2)NC(=O)[C@@H]2CCCN2C(=O)[C@@H](Cc2ccc(OCCN3CCOCC3)cc2)N(C)C(=O)[C@@H]2CCCCN2C(=O)[C@H]2CCCCN2C1=O` [Example 50] (cyclo(I[dPip][Pip][dNMeY](Ethyl(2-morpholino))P[dF])), the IC50 in test [1] (setting [6]) was more than 1000 nM; in test [2], 310 nM; in test [3] (setting [5]), more than 10000 nM.

On to `O=C1N[C@@H](C2CCCCC2)C(=O)N2CCC[C@@H]2C(=O)N2CCC[C@H]2C(=O)N[C@H](Cc2ccccc2)C(=O)N2CCC[C@H]2C(=O)N[C@@H]1Cc1ccccc1` [Example 67, c-[D-Phenylalanyl-L-cyclohexylglycyl-D-prolyl-L-prolyl-D-phenylalanyl-L-prolyl]] (cyclo([dF]P[dF][Chg][dP]P)), for which the half-inhibitory concentration (IC50) in test [1] (setting [4]) was more than 10000 nM; in test [2], 10000 nM; in test [3] (setting [5]), more than 10000 nM.

For `CC[C@H](C)[C@@H]1NC(=O)[C@@H](Cc2ccccc2)NC(=O)[C@@H]2CCCN2C(=O)[C@@H](Cc2ccccc2)NC(=O)[C@H]2CN(C(=O)OCc3ccccc3)CCN2C(=O)[C@H]2CCCCN2C1=O` [Example 76, c-[D-Phenylalanyl-L-isoleucinyl-D-pipecolyl-D-piperazin-2-yl(4-Cbz)-D-phenylalanyl-L-prolyl]] (cyclo(I[dPip][dPip(4-aza,4-Cbz)][dF]P[dF])), the IC50 was 10600 nM in test [1] (setting [7]), 460 nM in test [2] and 9300 nM in test [3] (setting [8]).

For the compound `CC[C@H](C)[C@@H]1NC(=O)[C@@H](Cc2ccccc2)NC(=O)[C@@H]2CCCN2C(=O)[C@@H](Cc2ccccc2)NC(=O)[C@@H]2CN(C(=O)OCc3ccccc3)CCN2C(=O)[C@H]2CCCCN2C1=O` [Example 77, c-[D-Phenylalanyl-L-isoleucinyl-D-pipecolyl-L-piperazin-2-yl(4-Cbz)-D-phenylalanyl-L-prolyl]] (cyclo(I[dPip][X2][dF]P[dF])), the results for the IC50 in test [1] (setting [7]), in test [2] and in test [3] (setting [5]) were 12300 nM, 240 nM and 10000 nM, respectively.

For the compound `CC[C@H](C)[C@@H]1NC(=O)[C@@H](Cc2ccccc2)NC(=O)[C@@H]2CCCN2C(=O)[C@@H](Cc2ccccc2)NC(=O)[C@H]2CNCCN2C(=O)[C@H]2CCCCN2C1=O` [Example 78, c-[D-Phenylalanyl-L-isoleucinyl-D-pipecolyl-D-piperazin-2-yl-D-phenylalanyl-L-prolyl]] (cyclo(I[dPip][dPip(4-aza)][dF]P[dF])), the half-maximal inhibitory concentration (IC50) was more than 10000 nM in test [1] (setting [4]), 300 nM in test [2] and 7900 nM in test [3] (setting [8]).

For the compound `CC[C@H](C)[C@@H]1NC(=O)[C@@H](Cc2ccccc2)NC(=O)[C@@H]2CCCN2C(=O)[C@@H](Cc2ccccc2)NC(=O)[C@@H]2CN(C(=O)OCc3ccccc3)CCN2C(=O)[C@H]2CN(C(=O)OCc3ccccc3)CCN2C1=O` [Example 79, c-[D-Phenylalanyl-L-isoleucinyl-D-piperazin-2-yl (4-Cbz)-L-piperazin-2-yl (4-Cbz)-D-phenylalanyl-L-prolyl]] (cyclo(I[dPip(4-aza,4-Cbz)][X2][dF]P[dF])), the results for the IC50 in test [1] (setting [4]), in test [2] and in test [3] (setting [5]) were 10000 nM, 1700 nM and more than 10000 nM, respectively.

Consider `CC[C@H](C)[C@@H]1NC(=O)[C@@H](Cc2ccccc2)NC(=O)[C@@H]2CCCN2C(=O)[C@@H](Cc2ccccc2)NC(=O)[C@@H]2CNCCN2C(=O)[C@H]2CNCCN2C1=O` [Example 80, c-[D-Phenylalanyl-L-isoleucinyl-D-piperazin-2-yl-L-piperazin-2-yl-D-phenylalanyl-L-prolyl]] (cyclo(I[dPip(4-aza)][Pip(4-aza)][dF]P[dF])), for which the IC50 in test [1] (setting [4]) was more than 10000 nM; in test [2], 10000 nM; in test [3] (setting [5]), more than 10000 nM.

For `CC[C@H](C)[C@@H]1NC(=O)[C@@H](Cc2ccccc2)NC(=O)[C@@H]2CCCN2C(=O)[C@@H](Cc2c[nH]cn2)NC(=O)[C@@H]2CN(C(=O)OCc3ccccc3)CCN2C(=O)[C@H]2CCCCN2C1=O` [Example 81, c-[D-Phenylalanyl-L-isoleucinyl-D-pipecolyl-L-piperazin-2yl(4Cbz)-D-histidinyl-L-prolyl]] (cyclo(I[dPip][X2][dH]P[dF])), the results for the concentration for half-maximal inhibition (IC50) in test [1] (setting [6]), in test [2] and in test [3] (setting [5]) were more than 1000 nM, 77 nM and more than 1000 nM, respectively.
